Like-named read-outs stand apart in the source and are kept apart here.

The text below walks through data of patent US4855128A, “Saccharide inhibition of dental plaque” (priority 1988, dated 1989).

The subject of this test is A. viscosus Tl4V-S. sanguis 34 coaggregation. The test is described as follows: Coaggregation assay: inhibition of A. viscosus Tl4V-S. sanguis 34 coaggregation. Particulars: for IC50: read-out: Concentration to effect 50% inhibition of coaggregation; for Rebound of coaggregation on increasing concentration: at concentrations above the 50% inhibition concentration; for Concentration to effect 50% inhibition of coaggregation: concentration in % (weight/volume basis); for Inhibition of coaggregation (in words): qualitative. The test is classed as cell-based. On the procedure:
This Example describes an assay for determining the inhibition of coaggregation by various agents according to the invention and the results obtained thereby.
Streptococcus sanguis strain 34 (originally derived from human dental plaque), and Actinomyces viscosus Tl4V were grown in a medium containing the dialyzable portion of Trypticase and Yeast Extract, supplemented with salts and a carbon source, as follows: A concentrated stock solution (20×, to make 10 liters of growth medium) containing Trypticase Peptone (BBL, 170 grams) and Yeast Extract (40 grams) as prepared in a liter of distilled water. This solution was subsequently ultrafiltered in an Amicon model DC-2 hollow fiber ultrafiltration cell, using an HlP10-20 hollow fiber cartridge (molecular weight cut off of 10,000 daltons), and the filtrate (that material of <10,000 daltons molecular weight) saved. The material was concentrated to a final volume of approximately 100 ml, and then reconstituted to one liter, after which the procedure was repeated for a total of three cycles, saving the filtrates at each step. The filtrates were collected into a vessel chilled on ice, combined, and the total volume measured. This stock solution was distributed in aliquots sufficient to make one liter of medium, and stored at -20° C. until used.
To prepare the growth medium, the appropriate volume of the 10× stock Trypticase-Yeast Extract stock solution was thawed, and to it added (in grams per liter): NaCl, 5, and K2 HPO4, 2.5, and the volume adjusted to 1 liter with distilled water. The medium was sterilized by autoclaving. Where indicated, glucose was added as a carbon source to give a final concentration of 0.2%. Initially, this was done by aseptically adding filter-sterilized glucose solutions to the autoclaved medium. For later experiments, glucose was added to the growth medium prior to sterilization.
Streptococci were grown in medium containing 0.2% glucose. Starter cultures were prepared by inoculation from a frozen stock culture, and incubated overnight at 37° C. under aerobic (not anaerobic) conditions. This starter culture was used as a 0.5-1.0% inoculum to inoculate larger quantities of medium (100 ml-1 liter), which were subsequently incubated for 16 hours at 37° C. Growth conditions were similar for the actinomycete, except that they were grown under an anaerobic environment (10% hydrogen-5% carbon dioxide, and 85% nitrogen). The starter culture was incubated for 24-48 hours, but the larger cultures required 48 hours incubation.
After growth, the cells were collected by centrifugation (10,000 x g, 15 minutes, 4° C.) and washed three times in PBS (phosphate-buffered saline, 0.025 M, pH 8.0 containing 1.46g NaCl per liter). The cells were then suspended in PBS such that when the stock cell suspension was diluted 1:10, it would produce an Absorbance at 660 nm of between 0.22-0.24, equivalent to an initial Absorbance of 2.2-2.4. The cells were stored on ice for use during the day, but warmed to ambient temperature before initiation of coaggregation. Residual cells were stored for further use by resuspension in a solution of 50% glycerol in water, and stored at 4° C. On the day of use, the cells were then collected by centrifugation, washed twice with PBS, and the trubidity adjusted as described above.
Assays were performed in a final volume of 1.0 ml in 190×75 mm disposable culture tubes, in duplicate. Controls consisted of 0.8 ml of either cell suspension, and 0.2 ml PBS. The coaggregating mixtures contained 0.4 ml of each cell suspension, and PBS to make 1.0 ml. Inhibitors were added from stock solutions to give the desired final concentrations, and, where necessary, the salt concentrations adjusted using a double-strength (2X) PBS solution. The mixtures were mixed on a Vortex mixer for 10 seconds at a speed setting of 6, incubated at ambient temperature for 10 minutes, vortexed again, and allowed to stand for 2 hours. […]

Setting [1] is: average of two independent experiments.

Regarding `OC[C@H]1O[C@@H](O[C@@H]2[C@@H](CO)OC(O)(CO)[C@H]2O)[C@H](O)[C@@H](O)[C@H]1O` (mixture of isomers) [Lactulose, reference compound], under “Actinomyces viscosus, 2 h”, the IC50 was 35 mM.
Regarding `OC[C@H]1OC(O)C[C@@H](O)[C@H]1O` (stereo partly drawn) [2-deoxy-D-galactose, reference compound], the IC50 (Actinomyces viscosus, 2 h) turned out to be 20 mM.
For the compound `C[C@H]1OC(O)[C@H](O)[C@@H](O)[C@H]1O` (stereo partly drawn) [D-Fructose (6-deoxy-D-galactose), 6-deoxy-D-galactose, reference compound], the IC50 (Actinomyces viscosus, 2 h) came out at 20 mM.
Take `O=C[C@H](O)[C@@H](O)[C@@H](O)[C@H](O)CO` [Galactose, reference compound]: the IC50 (Actinomyces viscosus, 2 h) was 22 mM.
As to `N[C@H]1C(O)O[C@H](CO)[C@H](O)[C@@H]1O` (stereo partly shown) [Galactoseamine, reference compound], the IC50 (Table 1 carbohydrates, 2 hours, ambient temperature, average of independent experiments in duplicate (lactose n=13, galactose n=6)) was 35 mM.
In the case of `O=C[C@H](O)[C@@H](O)[C@H](O)[C@H](O)CO` [Glucose, reference compound], the IC50 (Actinomyces viscosus, 2 h) is more than 100 mM.
As to `O=C[C@H](O)[C@@H](O)[C@H](O)[C@H](O)C(=O)O` [Glucuronic acid], the “Rebound of coaggregation on increasing concentration” value is on record as “then rebounds”. The IC50 (Actinomyces viscosus, 2 h) is 15 mM.
As to `O=C(O)[C@H](O)[C@@H](O)[C@H](O[C@@H]1O[C@H](CO)[C@H](O)[C@H](O)[C@H]1O)[C@H](O)CO` [Lactobionic acid, 4-[beta-D-galactosido]-D-gluconic acid], the “Rebound of coaggregation on increasing concentration” value is recorded as “then rebounds”. For the same compound, for the setting “Actinomyces viscosus, 2 h”, the IC50 lay in the range of 3 to 4 mM. The “Rebound of coaggregation on increasing concentration” value (listed as lactobionic acid) is recorded as “rebound effect”. For the same compound, the “Inhibition of coaggregation at the higher concentration” value (concentration increased up to 100 mM) is on record as 10%.
`OC[C@H]1O[C@@H](O[C@H]2[C@H](O)[C@@H](O)C(O)O[C@@H]2CO)[C@H](O)[C@@H](O)[C@H]1O` (stereo partly shown) [Lactose, reference compound]: for the setting “Actinomyces viscosus, 2 h”, the IC50 came out at 3.6 mM.
For `OC[C@H]1O[C@H](O[C@H]2[C@H](O)[C@@H](O)[C@H](O)O[C@@H]2CO)[C@H](O)[C@@H](O)[C@@H]1O` [Maltose, reference compound], where the note is “Actinomyces viscosus, 2 h”, the IC50 is more than 100 mM.
With `O=C[C@@H](O)[C@@H](O)[C@H](O)[C@H](O)CO` [Mannose, reference compound], the IC50 (Actinomyces viscosus, 2 h) was more than 100 mM.
Turning to `OC[C@H]1O[C@@](CO)(O[C@H]2O[C@H](CO)[C@@H](O)[C@H](O)[C@H]2O)[C@@H](O)[C@@H]1O` [Sucrose, reference compound], under “Actinomyces viscosus, 2 h”, the IC50 was more than 100 mM.
`OC[C@H]1O[C@H](O[C@H]2O[C@H](CO)[C@@H](O)[C@H](O)[C@H]2O)[C@H](O)[C@@H](O)[C@@H]1O` [Trehalose, reference compound]: where the note is “Actinomyces viscosus, 2 h”, the IC50 was more than 100 mM.
Take Agar [reference compound]: the “Inhibition of coaggregation (in words)” value is given as “did not demonstrate inhibition”. Besides, under setting [1], the “Concentration to effect 50% inhibition of coaggregation” value (from here on “Concentration to effect 50% inhibition”) is recorded as more than 0.2%.
Agarose [reference compound]: the “Inhibition of coaggregation (in words)” value is recorded as “did not demonstrate inhibition”. Under setting [1], the “Concentration to effect 50% inhibition” value is reported as more than 0.2%.
For the compound Chondroitin sulfate, the “Inhibition of coaggregation (in words)” value was “substantial inhibition”. The “Inhibition of coaggregation at 4%” value (at 4%) is approximately 50%. Further, under setting [1], the “Concentration to effect 50% inhibition” value is on record as 4%.
Turning to Guar gum, the “Concentration to effect 50% inhibition” value under setting [1] was 0.15%.
In the case of Pectin, the “Inhibition of coaggregation (in words)” value is reported as “substantial inhibition”. Moreover, the “Inhibition of coaggregation at 0.8%” value (at 0.8%) was approximately 50%. Also, the “Concentration to effect 50% inhibition” value under setting [1] stood at 0.8%.
Regarding Polygalacturonic acid, under setting [1], the “Concentration to effect 50% inhibition” value is listed as 0.1%.
Take Sodium alginate: the “Inhibition of coaggregation (in words)” value was “substantial inhibition”. For the same compound, the “Inhibition of coaggregation at 0.5%” value (at 0.5%, average of two independent experiments) worked out at 32%.
As to Soluble starch [reference compound], the “Inhibition of coaggregation (in words)” value is recorded as “poor inhibition”. Also, the “Inhibition of coaggregation at 1.0%” value (at 1.0%, average of two independent experiments) is 8%.
For the compound Xanthan gum, the “Concentration to effect 50% inhibition” value under setting [1] stood at 0.05%.
